Assay results reported in patent US20100076037A1, “Methods of Treating Neuropathic Pain with Agonists of PPAR-gamma” (priority 2006, published 2010).
Read-outs that look alike come from different tables or passages of the source.

What was measured:
[1] = test system: patients with type II diabetes; conditions: cited from earlier work
PPAR δ = PPAR δ (Homo sapiens, UniProt Q03181); conditions: cited from earlier work
male db/db mice = conditions: 5 mg/kg bid for 14 days; cited from earlier work
[2] = test system: Zucker diabetic fatty (ZDF) rats; conditions: cited from earlier work
Male Sprague-Dawley rats = assay: mechanical allodynia induced by spinal nerve ligation (SNL) in rats, von Frey; format: in vivo, rat; conditions: 20 mg/kg PO, post-SNL day 16, vs. vehicle
Procedure: Male Sprague-Dawley rats (Hsd:Sprague-Dawley®SD®, Harlan, Indianapolis, Ind., U.S.A.) weighing 223±2 g on Day14 were housed three per cage. Animals had free access to food and water and were maintained on a 12:12 h light/dark schedule for the entire duration of the study. The animal colony was maintained at 21° C. and 60% humidity. All experiments were conducted in accordance with the International Association for the Study of Pain guidelines and were approved by the University of Minnesota Animal Care and Use Committee.
The Spinal Nerve Ligation (SNL) model was used to induce chronic neuropathic pain. […]
Baseline, post-injury and post-treatment values for non-noxious mechanical sensitivity were evaluated using 8 Semmes-Weinstein filaments (Stoelting, Wood Dale, Ill., USA) with varying stiffness (0.4, 0.7, 1.2, 2.0, 3.6, 5.5, 8.5, and 15 g) according to the up-down method. […] The mean and standard error of the mean (SEM) were determined for each paw in each treatment group. […]
Statistical analyses were conducted using Prism™ 4.01 (GraphPad, San Diego, Calif., USA). Mechanical hypersensitivity of the injured paw was determined by comparing pre-SNL to post-SNL values at Day14. Data were analyzed using the Wilcoxon test. […] Drug effect was analyzed by comparing post-vehicle and post-drug values using the Friedman test followed by a Dunn's post hoc test.

[3] = cited from earlier work
rats = conditions: cited from earlier work
Sprague-Dawley rats = conditions: 20 mg/kg/day for 2 weeks, cited from earlier work
3T3 L1 adipocytes = conditions: cited from earlier work
male Sprague Dawley rats = conditions: 20 mg/kg/day; cited from earlier work
conscious rats = conditions: 2 mg/ml at 0.4 ml/h for 2 h bid for 4 days; cited from earlier work

Sequence of PPAR δ (Q03181 whole entry, species assumed): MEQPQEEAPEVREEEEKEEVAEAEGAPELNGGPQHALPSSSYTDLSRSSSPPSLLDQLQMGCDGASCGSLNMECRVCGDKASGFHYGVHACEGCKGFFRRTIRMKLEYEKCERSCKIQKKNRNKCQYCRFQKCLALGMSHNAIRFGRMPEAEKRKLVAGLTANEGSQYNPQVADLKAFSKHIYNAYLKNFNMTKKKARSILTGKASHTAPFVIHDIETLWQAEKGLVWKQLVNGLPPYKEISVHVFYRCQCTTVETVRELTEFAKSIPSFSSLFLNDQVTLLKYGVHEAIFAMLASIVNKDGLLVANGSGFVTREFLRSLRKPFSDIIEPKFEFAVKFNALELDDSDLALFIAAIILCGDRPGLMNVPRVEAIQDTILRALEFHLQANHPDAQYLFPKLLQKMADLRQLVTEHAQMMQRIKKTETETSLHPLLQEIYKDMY

Compound: Cc1oc(-c2ccccc2)nc1CCOc1ccc(C[C@H](Nc2ccccc2C(=O)c2ccccc2)C(=O)O)cc1 [farglitazar]
- blood pressure ([1]; 5 and 10 mg/day, hypertensive type II diabetic patients): significantly lowered
- glucose, insulin and triglycerides ([1]; 14-day trial, 35 patients): significant reductions
- activity at PPAR δ (PPAR δ): inactive
- non-fasted glucose and insulin (male db/db mice): significant decrease
- rats that maintained normal fed glucose levels throughout the 24-week study ([2]; 3 mg/kg/day, start at 6 weeks): 12 of 13
- rats that maintained fed plasma glucose levels ([2]; 3 mg/kg/day, start at 10 weeks): 0 of 10
- levels of non-esterified fatty acids ([2]; rat, in vivo): dose-dependently reduced
- mechanical allodynia (Male Sprague-Dawley rats): significantly (p<0.05 vs. vehicle, Dunn's post hoc test) reduced
- AUC ([3]; 0.5 mg po): 44 ng·h/mL
- Cmax ([3]; 0.5 mg po): 20 ng/mL
- Half-life (t1/2) ([3]; 0.5 mg po): 3 h
- AUC ([3]; 1.5 mg po): 111 ng·h/mL
- Cmax ([3]; 1.5 mg po): 48 ng/mL
- Half-life (t1/2) ([3]; 1.5 mg po): 3.9 h
- AUC ([3]; 5 mg po): 355 ng·h/mL
- Cmax ([3]; 5 mg po): 168 ng/mL
- Half-life (t1/2) ([3]; 5 mg po): 4.9 h
- AUC ([3]; 15 mg po): 963 ng·h/mL
- Cmax ([3]; 15 mg po): 378 ng/mL
- Half-life (t1/2) ([3]; 15 mg po): 4.9 h
- AUC ([3]; 40 mg po): 2636 ng·h/mL
- Cmax ([3]; 40 mg po): 1173 ng/mL
- Half-life (t1/2) ([3]; 40 mg po): 5.3 h
- tolerability ([3]; single oral doses): well tolerated
- vasodilator NO levels (rats; 8 mg/kg bid po): Increased
- systemic vascular pressure and arterial pressure (rats; diabetic rats, 8 mg/kg bid, 10 days): decreased
- serum VEGF (Sprague-Dawley rats; high-fat diet): significantly suppressed
- postprandial serum insulin (Sprague-Dawley rats): normalized
- basal VEGF secretion (3T3 L1 adipocytes): modestly increased
- elevation of ENaC α subunit mRNA in kidney medulla (male Sprague Dawley rats): 32%
- elevation of PPARgamma mRNA in kidney medulla (male Sprague Dawley rats): 31%
- elevation of glucocorticoid receptor mRNA in kidney medulla (male Sprague Dawley rats): 13%
- plasma volume (male Sprague Dawley rats): rapid onset of plasma volume expansion
- mean arterial blood pressure (conscious rats): fall
